Where two headings read alike, the source gives them in different places. Bridge positions count the residues as written; N and C are the ends. Square brackets hold non-standard residues; d marks the D form. Peptide text beside a SMILES is read from it. hArg = N=C(N)NCCCC[C@H](N)C(=O)O; Mpa = O=C(O)CCS
Assays:
[1] = assay type: in vivo, human
GP IIb/IIIa receptor = conditions: PRIDE study; cited from earlier work

For `N=C(N)NCCCC[C@@H]1NC(=O)CCSSC[C@@H](C(N)=O)NC(=O)[C@@H]2CCCN2C(=O)[C@H](Cc2c[nH]c3ccccc23)NC(=O)[C@H](CC(=O)O)NC(=O)CNC1=O` [Eptifibatide] ([Mpa][hArg]GDWPC-NH2; disulfide 1-7 (inferred); C-terminus assumed), the “Slope of plasma concentration versus body weight (ANCOVA regression)” value ([1]; ABW dosing) was 20.6, the “Patients with plasma Eptifibatide >1600 ng/mL” value ([1]; ABW-based dosing (N=22)) was 14 (64) no. (%) and the “Patients with plasma Eptifibatide ≤1600 ng/mL” value ([1]; ABW-based dosing (N=22)) was 8 (36) no. (%). For the same molecule, the “Slope of plasma concentration versus body weight (ANCOVA regression)” value ([1]; IBW dosing) was 6.9, the “Patients with plasma Eptifibatide >1600 ng/mL” value ([1]; IBW-based dosing (N=20)) was 2 (10) no. (%) and the “Patients with plasma Eptifibatide ≤1600 ng/mL” value ([1]; IBW-based dosing (N=20)) was 18 (90) no. (%). The “Slope of plasma concentration versus body weight (ANCOVA regression)” value ([1]; standard dosing) was −6.4, the “Patients with plasma Eptifibatide >1600 ng/mL” value ([1]; standard dosing (N=19)) was 10 (53) no. (%) and the “Patients with plasma Eptifibatide ≤1600 ng/mL” value ([1]; standard dosing (N=19)) was 9 (47) no. (%). The “Plasma concentration necessary to achieve >80% occupancy of the GP IIb/IIIa receptor” value (GP IIb/IIIa receptor) was “approximately 1600 ng/mL”.

From article PMC3611663 (American heart journal, 2011)
